# ChEMBL document CHEMBL5316357, “Discovery of Linvencorvir (RG7907), a Hepatitis B Virus Core Protein Allosteric Modulator, for the Treatment of Chronic HBV Infection” (J Med Chem, 2023)
# The source made the active and inactive calls. The calls are words filed in the database; no cut-off is given here.
# Legend:
# [1] = AUC (0-infinity) in rat plasma at 1 mg/kg,iv; type: ADME, organism-based; design: dose 1 mg/kg, route iv
# [2] = AUC (0-infinity) in mouse liver at 3 mg/kg,po; type: ADME, organism-based; design: dose 3 mg/kg, route po
# [3] = Clearance in mouse plasma at 1 mg/kg,iv; type: ADME, organism-based
# [4] = Octanol-water partition coefficient, logD of the compound at pH 7.4; type: physicochemical
# [5] = tested on: Hepatitis B virus; test: Antiviral activity against HBV stably transfected in human HepG2.2.15 cells assessed as reduction of HBV DNA replication incubated for 5 days by q-PCR analysis; type: functional, organism-based; conditions: HepG2 2.2.15, 120 h
# [6] = AUC (0-infinity) in mouse plasma at 1 mg/kg,iv; type: ADME, organism-based; design: dose 1 mg/kg, route iv; conditions: in vivo
# [7] = Clearance in rat hepatocyte at 2 uM measured upto 120 mins by LC-MS/MS analysis; type: ADME, cell-based; conditions: hepatocytes
# [8] = Volume of distribution at steady state in mouse plasma at 1 mg/kg,iv; type: ADME, organism-based; conditions: read-out: Vdss
# [9] = Volume of distribution at steady state in rat plasma at 1 mg/kg,iv; type: ADME, organism-based; conditions: read-out: Vdss
# [10] = Oral bioavailability in mouse plasma at 3 mg/kg; type: ADME, organism-based; conditions: in vivo
# [11] = AUC (0-infinity) in rat plasma at 3 mg/kg,po; type: ADME, organism-based; design: dose 3 mg/kg, route po; conditions: for AUC: in vivo
# [12] = Half life in rat plasma at 1 mg/kg,iv; type: ADME, organism-based
# [13] = Clearance in rat plasma at 1 mg/kg,iv; type: ADME, organism-based
# [14] = Clearance in human hepatocyte at 2 uM measured upto 120 mins by LC-MS/MS analysis; type: ADME, cell-based; conditions: hepatocytes
# [15] = AUC (0-infinity) in mouse plasma at 3 mg/kg,po; type: ADME, organism-based; design: dose 3 mg/kg, route po; conditions: in vivo
# [16] = Induction of CYP3A4 mRNA expression level in human hepatocytes at 10 uM incubated for 24 hrs by q-PCR analysis; type: ADME, cell-based, Hepatocyte
# [17] = Cytotoxicity against human HepDE19 cells assessed as reduction in cell viability incubated for 5 days by CCK-8 assay; type: functional; conditions: HepDE19, 120 h, time 5 day
# [18] = Oral bioavailability in rat plasma at 3 mg/kg; type: ADME, organism-based; conditions: for F: in vivo, po, 3 mg/kg
# [19] = Clearance in human liver microsomes at 1 uM measured upto 30 mins in presence of NADPH by LC-MS/MS analysis; type: ADME, Microsome
# [20] = target: hERG (Homo sapiens, UniProt Q12809); test: (§1) Inhibition of hERG stably expressed in CHO cells by whole-cell voltage-clamp assay; type: toxicity, cell-based; conditions: human, CHO cells stably expressing hERG
# [21] = target: Voltage-gated inwardly rectifying potassium channel KCNH2 (Homo sapiens, UniProt Q12809); test: as §1; type: toxicity, cell-based
# [22] = Ratio of AUC (0 to infinity) in liver to plasma of mouse at 3 mg/kg,po; type: ADME, organism-based; conditions: read-out: Ratio AUC
# [23] = Half life in mouse plasma at 1 mg/kg,iv; type: ADME, organism-based
# [24] = tested on: Hepatitis B virus; test: Antiviral activity against AAV-Hepatitis B virus infected in C57BL/6 mouse assessed as reduction of serum HBeAg level at 6 to 20 mg/kg,po qd for 8 weeks by chemiluminescence immunoassay; type: functional, organism-based; conditions: dose 6-20 mg/kg
# [25] = tested on: Hepatitis B virus; test: Antiviral activity against AAV-Hepatitis B virus infected in C57BL/6 mouse assessed as reduction of serum HBV DNA level at 6 to 20 mg/kg,po qd for 8 weeks by quantitative real-time PCR analysis; type: functional, organism-based; conditions: dose 6-20 mg/kg
# [26] = tested on: Hepatitis B virus; test: Antiviral activity against AAV-Hepatitis B virus infected in C57BL/6 mouse assessed as reduction of serum HBsAg level at 6 to 20 mg/kg,po qd for 8 weeks by chemiluminescence immunoassay; type: functional, organism-based; conditions: dose 6-20 mg/kg
# [27] = tested on: Hepatitis B virus; test: Antiviral activity against AAV-Hepatitis B virus infected in C57BL/6 mouse assessed as reduction of serum HBV DNA level at 0.03 mg/kg,po qd for 8 weeks by quantitative real-time PCR analysis; type: functional, organism-based
# [28] = tested on: Hepatitis B virus; test: Antiviral activity against AAV-Hepatitis B virus infected in C57BL/6 mouse assessed as reduction of serum HBsAg level at 0.03 mg/kg,po qd for 8 weeks by chemiluminescence immunoassay; type: functional, organism-based
# [29] = tested on: Hepatitis B virus; test: Antiviral activity against AAV-Hepatitis B virus infected in C57BL/6 mouse assessed as reduction of serum HBeAg level at 0.03 mg/kg,po qd for 8 weeks by chemiluminescence immunoassay; type: functional, organism-based
# Voltage-gated inwardly rectifying potassium channel KCNH2, sequence (Q12809 whole entry): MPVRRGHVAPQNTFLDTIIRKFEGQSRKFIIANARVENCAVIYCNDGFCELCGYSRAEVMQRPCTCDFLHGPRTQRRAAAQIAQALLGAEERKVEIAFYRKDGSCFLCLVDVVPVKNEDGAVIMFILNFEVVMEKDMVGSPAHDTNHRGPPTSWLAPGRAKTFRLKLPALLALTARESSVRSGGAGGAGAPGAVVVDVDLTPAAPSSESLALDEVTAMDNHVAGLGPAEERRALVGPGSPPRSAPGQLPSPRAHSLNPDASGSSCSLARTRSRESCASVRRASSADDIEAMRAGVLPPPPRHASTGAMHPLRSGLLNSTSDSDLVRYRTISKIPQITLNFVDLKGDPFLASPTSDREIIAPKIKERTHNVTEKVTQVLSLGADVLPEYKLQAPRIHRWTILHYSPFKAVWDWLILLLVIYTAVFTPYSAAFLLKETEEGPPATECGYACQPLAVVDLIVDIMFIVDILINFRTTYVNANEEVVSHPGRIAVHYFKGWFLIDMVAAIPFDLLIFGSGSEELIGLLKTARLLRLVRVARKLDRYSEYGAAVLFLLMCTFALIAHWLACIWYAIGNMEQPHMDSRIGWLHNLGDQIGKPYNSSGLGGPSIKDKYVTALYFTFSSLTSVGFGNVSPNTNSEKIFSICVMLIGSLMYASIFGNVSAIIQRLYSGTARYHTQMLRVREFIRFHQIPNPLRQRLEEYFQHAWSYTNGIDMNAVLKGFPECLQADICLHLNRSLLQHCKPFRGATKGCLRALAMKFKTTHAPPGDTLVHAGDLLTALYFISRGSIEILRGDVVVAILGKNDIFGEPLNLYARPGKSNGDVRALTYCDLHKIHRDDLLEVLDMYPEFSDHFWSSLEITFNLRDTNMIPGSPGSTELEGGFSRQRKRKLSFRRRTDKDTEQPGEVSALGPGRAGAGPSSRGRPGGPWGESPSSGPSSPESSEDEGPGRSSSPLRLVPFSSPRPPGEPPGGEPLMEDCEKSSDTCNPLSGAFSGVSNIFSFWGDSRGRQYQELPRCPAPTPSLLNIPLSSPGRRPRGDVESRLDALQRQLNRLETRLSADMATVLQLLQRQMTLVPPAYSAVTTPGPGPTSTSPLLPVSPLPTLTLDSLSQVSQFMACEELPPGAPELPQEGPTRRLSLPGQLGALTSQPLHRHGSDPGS
# hERG, sequence (Q12809 whole entry): as above
Structure (SMILES),clearance [3] [mL/min/kg],logD [4],EC50 [5] [nM],AUC [6] [ng·h/mL],CLhep predicted at 2 µM [7] [mL/min/kg],Vd [8] [L/kg],F [10] [%],CLhep predicted at 2 µM [14] [mL/min/kg],AUC [15] [ng·h/mL],Activity [16] [%],CC50 [17] [nM],CLhep predicted at 1 µM [19] [mL/min/kg],IC20 [20] [nM],IC50 [21] [nM],half-life [23] [min],AUC [11] [ng·h/mL],F [18] [%],further results
CCOC(=O)C1=C(CN2CCN3C(=O)N(CC(C)(C)C(=O)O)C[C@@H]3C2)NC(c2nccs2)=N[C@H]1c1cccc(F)c1Cl,35,1.69,3,471,17,1.3,33,7,154,1,> 100000,0.4,> 10000,> 20000,37.2,–,–,AUC(0-inf) ([1]; plasma): 257 ng·h/mL; AUC(0-inf) [2]: 3760 ng·h/mL; Vd [9]: 4.8 L/kg; AUC(0-inf) ([11]; plasma): 26 ng·h/mL; half-life [12]: 108 min; clearance [13]: 65 mL/min/kg; bioavailability ([18]; plasma): 10%; Kp [22]: 24
CCOC(=O)C1=C(CN2CCN3C(=O)N(CC(C)(C)C(=O)O)C[C@@H]3C2)N=C(c2nccs2)N[C@H]1c1cccc(F)c1C [LINVENCORVIR],–,–,6,–,–,–,–,–,–,–,> 100000,–,–,–,–,–,–,Activity [24]: Dose-Dependent Effect; Activity [25]: Dose-Dependent Effect; Activity [26]: Dose-Dependent Effect
COC(=O)C1=C(CN2CCN3C(=O)N(CC(C)(C)C(=O)O)C[C@@H]3C2)NC(c2nccs2)=N[C@H]1c1ccc(F)cc1Cl,–,1.18,6,–,14,–,–,9.2,–,0.6,> 100000,2,> 10000,> 20000,–,26,7.1,–
CCOC(=O)C1=C(CN2C[C@H]3CN(C(C)(C)C)C(=O)N3C[C@@H]2C(=O)O)NC(c2nccs2)=N[C@H]1c1ccc(F)cc1Cl,248,–,1,65,–,5.2,0.7,–,0.4,4,> 100000,5,2200,10000,30,2.7,1.4,AUC ([1]; in vivo): 188 ng·h/mL; AUC(0-inf) [2]: 279 ng·h/mL; Vd [9]: 5.4 L/kg; half-life [12]: 90 min; clearance [13]: 87 mL/min/kg; Kp [22]: 607
CCOC(=O)C1=C(CN2CCN3C(=O)N(CC(C)(C)C(=O)O)C[C@@H]3C2)NC(c2nccs2)=N[C@H]1c1ccc(F)c(F)c1C,–,2,3,–,–,–,–,–,–,–,> 100000,–,–,–,–,43,7.4,–
COC(=O)C1=C(CN2CCN3C(=O)N(CC(C)(C)C(=O)O)C[C@@H]3C2)NC(c2nccs2)=N[C@H]1c1ccc(F)c(F)c1C,–,1.51,6,–,16,–,–,2.4,–,–,94000,–,–,–,–,43,14,–
C=C1[C@H](CO)[C@@H](O)C[C@@H]1n1cnc2c(=O)[nH]c(N)nc21,–,–,–,–,–,–,–,–,–,–,–,–,–,–,–,–,–,Activity [27]: Active; Activity [28]: inactive; Activity [29]: inactive
CCOC(=O)C1=C(CN2CCN3C(=O)N(CC(C)(C)C(=O)O)C[C@@H]3C2)NC(c2nccs2)=N[C@H]1c1ccc(F)cc1Cl,58,1.67,9,323,22,2.2,12,0.6,38,–,77000,–,–,–,54,70,15.6,–
